Values after ≈ are worked out from the molar mass of the structure shown. Like-named read-outs stand apart in the source and are kept apart here.
What was measured:
S. pyogenes A20201 [1] = test: Systemic infection with S. pyogenes in mice; assay type: in vivo; settings: just before challenge, determined after 5 days
Stability in solution = assay type: physicochemical
[2] = tested on: aerobic and anaerobic bacteria; test: Antibacterial activity and spectrum (in words); assay type: cell-based
[3] = tested on: Escherichia coli K-12 A9632; test: MIC, serial two-fold agar dilution, aerobic bacteria; settings: K12A9632
[4] = tested on: Staphylococcus aereus Smith; test: as above; assay type: cell-based
[5] = tested on: Neisseria meningitidis A21496; test: as above; assay type: cell-based; settings: GC medium (Eiken)
B. fragilis A20928-1 [6] = test: Bactericidal activity (MIC & MBC); assay type: cell-based; settings: Bacteroides fragilis, A209281, inoculum size 2.8 × 10^6 cell/ml
[7] = tested on: Peptocuccus prevotii ATCC 9321; test: microbe, parasite or virus in culture
C. perfringens A9635 [8] = test: microbe, parasite or virus in culture; assay type: cell-based, Clostridium perfringens
[9] = tested on: Sphaerophorus pseudonecrophorus A20013; test: microbe, parasite or virus in culture; settings: Fusobacterium necrophorum
[10] = tested on: Klebsiella pneumoniae A9678; test: MIC, serial two-fold agar dilution, aerobic bacteria; assay type: cell-based; settings: Nutrient agar (Eiken), read-out: MIC
[11] = tested on: two anaerobic organisms (B. fragilis and C. perfringens); assay type: cell-based; settings: broth dilution method
C. perfringens A9635 [12] = test: microbe, parasite or virus in culture; assay type: cell-based; settings: Clostridium perfringens
[13] = tested on: Bacteroides fragilis A20929; test: microbe, parasite or virus in culture
[14] = tested on: Bacteroides fragilis A20930; test: microbe, parasite or virus in culture
[15] = tested on: Escherichia coli Juhl A15119; test: MIC, serial two-fold agar dilution, aerobic bacteria; assay type: cell-based; settings: JUHLA15119
Proteus mirabilis A9554 = test: as above; assay type: cell-based; settings: Nutrient agar (Eiken)
S. pyogenes A20201 [16] = test: Bactericidal activity (MIC & MBC); assay type: cell-based; settings: Streptococcus pyogenes, A20201, 18 h
[17] = tested on: Diplococcus pneumoniae A9585; test: MIC, serial two-fold agar dilution, aerobic bacteria; assay type: cell-based; settings: Streptococcus pneumoniae, GC medium (Eiken)
[18] = tested on: Serratia marcescens A20019; test: as above; assay type: cell-based; settings: Nutrient agar (Eiken), read-out: MIC
B. fragilis A20928-1 [19] = test: Inoculum size effect on MIC, GAM broth; assay type: cell-based; settings: Bacteroides fragilis
[20] = tested on: Neisseria gonorrhoeae A20154; test: MIC, serial two-fold agar dilution, aerobic bacteria; assay type: cell-based; settings: GC medium (Eiken)
[21] = tested on: Peptococcus aerogenes ATCC 14963; test: microbe, parasite or virus in culture; settings: Peptoniphilus asaccharolyticus, ATCC14963
[22] = tested on: two anaerobic and one aerobic organisms; test: Bactericidal potential (in words); assay type: cell-based
[23] = tested on: Veillonella parvula ATCC 17745; test: microbe, parasite or virus in culture; settings: ATCC17745
[24] = tested on: Sphaerophorus necrophorus A15202; test: microbe, parasite or virus in culture; settings: Fusobacterium necrophorum
[25] = tested on: Pseudomonas aeruginosa A9843; test: MIC, serial two-fold agar dilution, aerobic bacteria; assay type: cell-based; settings: test medium not given
[26] = tested on: Hemophilus influenzae A9832; test: as above; assay type: cell-based; settings: Haemophilus influenzae, GC medium (Eiken)
[27] = tested on: Bacillus cereus ATCC 10702 A; test: as above; assay type: cell-based; settings: ATCC10702
[28] = pKa' by titration in aqueous ethanol; assay type: physicochemical; settings: 50% aqueous ethanol
[29] = tested on: Streptococcus pyogenes A20201; test: MIC, serial two-fold agar dilution, aerobic bacteria; assay type: cell-based; settings: GC medium (Eiken)
aerobic organisms = test: Antibacterial activity against aerobic bacteria (in words); assay type: cell-based; settings: Bacillus species, streptococci, Neisseria meningtidis, N. gonorrhoeae, Hemophilus influenzae
C. perfringens A9635 [30] = test: animal or person; assay type: in vivo, mice
Solubility = assay type: physicochemical
Sarcina lutea PCI-1001 = test: MIC, serial two-fold agar dilution, aerobic bacteria; assay type: cell-based; settings: Micrococcus luteus, PCI1001; Nutrient agar (Eiken); read-out: MIC
Micrococcus flavus = test: as above; assay type: cell-based
[31] = tested on: Streptococcus pyogenes A9604; test: as above; assay type: cell-based; settings: GC medium (Eiken)
Proteus morganii A9553 = test: as above; assay type: cell-based; settings: Morganella morganii, Nutrient agar (Eiken)
B. fragilis A20928-1 [32] = test: Inoculum size effect on MIC, GAM agar; assay type: cell-based; settings: Bacteroides fragilis, A209281; inoculum size 1.2 × 10^6 cell/ml
[33] = tested on: Fusobacterium mortiferum ATCC 9817; test: microbe, parasite or virus in culture; settings: ATCC9817

COC(=O)C1C(C)OC2(C)CC(=O)C3OC12OC(C(C)/C=C(C)/C=C/C(=O)C1=C(O)CN(C)C1=O)C3C (centres unmarked) [Bu-2313A]
ED50 (S. pyogenes A20201 [1]; Streptococcus pyogenes, A20201, 120 h, sc, read-out: PD50): 7.6 mg/kg | PD50 (S. pyogenes A20201 [1]; po, NA: no activity): NA at 25 | stability (Stability in solution; acidic solution): stable | stability (Stability in solution; alkaline solution, N/10 NaOH, room temperature, overnight): inactivated | antibacterial activity [2]: exhibit antibacterial activity against a variety of anaerobic bacteria and some aerobic bacteria | comparative activity and antibacterial spectrum ([2]; in vitro): very similar to those of tirandamycin | MIC [3]: > 100 µg/mL | MIC [4]: 12.5 µg/mL (≈ 24.2 µM) | MIC [5]: 3.1 µg/mL (≈ 5.99 µM) | MIC (B. fragilis A20928-1 [6]; broth): 0.03 µg/mL (≈ 0.058 µM) | MBC (B. fragilis A20928-1 [6]; growth of less than 100 colonies per plate, 18 hours at 37° C.): > 0.8 µg/mL | MIC [7]: 0.2 µg/mL (≈ 0.386 µM) | MIC (C. perfringens A9635 [8]; Clostridium perfringens, A9635, read-out: MIC in GAM agar): 0.1 µg/mL (≈ 0.193 µM) | MIC in GAM agar (C. perfringens A9635 [8]; inoculum size 7 × 10^6 cell/ml): 0.1 µg/mL (≈ 0.193 µM) | MIC [9]: 0.2 µg/mL (≈ 0.386 µM) | MIC [10]: > 100 µg/mL | influence of inoculum size on MIC [11]: greatly affected by inoculum size | MIC (C. perfringens A9635 [12]; A9635): 0.1 µg/mL (≈ 0.193 µM) | MBC (C. perfringens A9635 [12]; A9635, 18 h): 12.5 µg/mL (≈ 24.2 µM) | MIC [13]: 0.2 µg/mL (≈ 0.386 µM) | MIC [14]: 0.2 µg/mL (≈ 0.386 µM) | MIC [15]: > 100 µg/mL | MIC (Proteus mirabilis A9554): > 100 µg/mL | MBC (S. pyogenes A20201 [16]): 12.5 µg/mL (≈ 24.2 µM) | MIC [17]: 0.8 µg/mL (≈ 1.55 µM) | MIC [18]: > 100 µg/mL | MIC (B. fragilis A20928-1 [19]; A209281, inoculum size […] 10^7 cell/ml, read-out: MIC in GAM broth): 0.8 µg/mL (≈ 1.55 µM) | MIC (B. fragilis A20928-1 [19]; A209281, read-out: MIC in GAM broth, inoculum size […] 10^6 cell/ml): 0.06 µg/mL (≈ 0.116 µM) | MIC [20]: 0.8 µg/mL (≈ 1.55 µM) | MIC [21]: 0.2 µg/mL (≈ 0.386 µM) | antibacterial action [22]: bacteriostatic rather than bactericidal | MIC [23]: 0.2 µg/mL (≈ 0.386 µM) | MIC [24]: 0.2 µg/mL (≈ 0.386 µM) | MIC [25]: > 100 µg/mL | MIC [26]: 0.8 µg/mL (≈ 1.55 µM) | MIC [27]: 0.8 µg/mL (≈ 1.55 µM) | pKa [28]: 5.2 | MIC [29]: 0.8 µg/mL (≈ 1.55 µM) | susceptibility of aerobic strains (aerobic organisms): susceptible | ED50 (C. perfringens A9635 [30]; Clostridium perfringens, A9635, in Mus musculus, sc, 120 h, read-out: PD50): 6.25 mg/kg | PD50 (C. perfringens A9635 [30]; po, just before challenge, determined after 5 days, NA: no activity): NA at 50 | solubility (Solubility; hexane and alkaline water): slightly soluble | solubility (Solubility; most organic solvents such as lower alcohols, ethyl acetate, chloroform and benzene): readily soluble | solubility (Solubility; water): practically insoluble | MIC (Sarcina lutea PCI-1001): 25 µg/mL (≈ 48.3 µM) | MIC (Micrococcus flavus): 6.3 µg/mL (≈ 12.2 µM) | MIC [31]: 0.8 µg/mL (≈ 1.55 µM) | MIC (Proteus morganii A9553): > 100 µg/mL | MIC (B. fragilis A20928-1 [32]): 0.1 µg/mL (≈ 0.193 µM) | MIC [33]: 0.2 µg/mL (≈ 0.386 µM)
